Results published in ChEMBL document CHEMBL1157738, “Simocyclinone D8 turns on against Gram-negative bacteria in a clinical setting” (2010).
≈ marks a conversion by molar mass, not a printed value.

How the values were obtained:
Type in all cases: functional
Escherichia coli [1] = assay: Antibacterial activity against Escherichia coli XL-1Blue after 24 hrs by twofold serial dilution method; settings: Escherichia coli, XL-1Blue, 24 h
Escherichia coli [2] = assay: Antibacterial activity against Escherichia coli JM110 after 24 hrs by twofold serial dilution method; settings: Escherichia coli, JM110, 24 h
Klebsiella pneumoniae [3] = assay: Antibacterial activity against Klebsiella pneumoniae isolate 110 expressing qnr B19 gene, GyrA D87G mutant after 24 hrs by twofold serial dilution method; settings: isolate 110, 24 h
Escherichia coli [4] = assay: Antibacterial activity against Escherichia coli isolate 47 expressing qnr B19 gene after 24 hrs by twofold serial dilution method; settings: Escherichia coli, isolate 47, 24 h
Escherichia coli [5] = assay: Antibacterial activity against Escherichia coli isolate 191 expressing qnr S1 gene after 24 hrs by twofold serial dilution method; settings: Escherichia coli, isolate 191, 24 h
Escherichia coli [6] = assay: Antibacterial activity against Escherichia coli Top10 after 24 hrs by twofold serial dilution method; settings: Escherichia coli, Top10, 24 h
Escherichia coli [7] = assay: Antibacterial activity against Escherichia coli isolate 7 after 24 hrs by twofold serial dilution method; settings: Escherichia coli, isolate 7, 24 h
Escherichia coli [8] = assay: Antibacterial activity against Escherichia coli isolate 95 expressing GyrA S83L mutant after 24 hrs by twofold serial dilution method; settings: isolate 95, 24 h
Klebsiella pneumoniae [9] = assay: Antibacterial activity against Klebsiella pneumoniae isolate 370 expressing qnr B19 gene, GyrA D87G mutant after 24 hrs by twofold serial dilution method; settings: isolate 370, 24 h
Klebsiella pneumoniae [10] = assay: Antibacterial activity against Klebsiella pneumoniae isolate 204 expressing qnr B19 gene after 24 hrs by twofold serial dilution method; settings: Klebsiella pneumoniae, isolate 204, 24 h
Escherichia coli [11] = assay: Antibacterial activity against Escherichia coli isolate 13 after 24 hrs by twofold serial dilution method; settings: Escherichia coli, isolate 13, 24 h
Escherichia coli [12] = assay: Antibacterial activity against Escherichia coli isolate 24 after 24 hrs by twofold serial dilution method; settings: Escherichia coli, isolate 24, 24 h
Klebsiella pneumoniae [13] = assay: Antibacterial activity against Klebsiella pneumoniae isolate 16 expressing qnr B19 gene, GyrA D87G mutant after 24 hrs by twofold serial dilution method; settings: isolate 16, 24 h
Escherichia coli [14] = assay: Antibacterial activity against Escherichia coli JM109 after 24 hrs by twofold serial dilution method; settings: Escherichia coli, JM109, 24 h
Escherichia coli [15] = assay: Antibacterial activity against Escherichia coli isolate 9 expressing qnr B19 gene, GyrA D87G, ParC S80I mutant after 24 hrs by twofold serial dilution method; settings: isolate 9, 24 h
Escherichia coli [16] = assay: Antibacterial activity against Escherichia coli isolate 115 expressing GyrA S83L mutant after 24 hrs by twofold serial dilution method; settings: isolate 115, 24 h
Klebsiella pneumoniae [17] = assay: Antibacterial activity against Klebsiella pneumoniae isolate 134 after 24 hrs by twofold serial dilution method; settings: Klebsiella pneumoniae, isolate 134, 24 h
Klebsiella pneumoniae [18] = assay: Antibacterial activity against Klebsiella pneumoniae isolate 5 expressing qnr B19 gene, GyrA D87G mutant after 24 hrs by twofold serial dilution method; settings: isolate 5, 24 h
Klebsiella pneumoniae [19] = assay: Antibacterial activity against Klebsiella pneumoniae isolate 91 after 24 hrs by twofold serial dilution method; settings: Klebsiella pneumoniae, isolate 91, 24 h
Escherichia coli [20] = assay: Antibacterial activity against Escherichia coli isolate 85 expressing GyrA S83L mutant after 24 hrs by twofold serial dilution method; settings: isolate 85, 24 h
Escherichia coli [21] = assay: Antibacterial activity against Escherichia coli isolate 41 after 24 hrs by twofold serial dilution method; settings: Escherichia coli, isolate 41, 24 h
Escherichia coli [22] = assay: Antibacterial activity against Escherichia coli HB101 after 24 hrs by twofold serial dilution method; settings: Escherichia coli, HB101, 24 h
Staphylococcus aureus = assay: Antibacterial activity against Staphylococcus aureus after 24 hrs by twofold serial dilution method; settings: Staphylococcus aureus, 24 h
Escherichia coli [23] = assay: Antibacterial activity against Escherichia coli isolate 21 after 24 hrs by twofold serial dilution method; settings: Escherichia coli, isolate 21, 24 h
Klebsiella pneumoniae [24] = assay: Antibacterial activity against Klebsiella pneumoniae isolate 97 expressing qnr B19 gene after 24 hrs by twofold serial dilution method; settings: Klebsiella pneumoniae, isolate 97, 24 h
Escherichia coli [25] = assay: Antibacterial activity against Escherichia coli isolate 50 expressing qnr B19 gene after 24 hrs by twofold serial dilution method; settings: Escherichia coli, isolate 50, 24 h
Klebsiella pneumoniae [26] = assay: Antibacterial activity against Klebsiella pneumoniae isolate 92 after 24 hrs by twofold serial dilution method; settings: Klebsiella pneumoniae, isolate 92, 24 h
Klebsiella pneumoniae [27] = assay: Antibacterial activity against Klebsiella pneumoniae isolate 172 expressing qnr B19 gene, GyrA D87G mutant after 24 hrs by twofold serial dilution method; settings: isolate 172, 24 h
Klebsiella pneumoniae [28] = assay: Antibacterial activity against Klebsiella pneumoniae isolate 173 after 24 hrs by twofold serial dilution method; settings: Klebsiella pneumoniae, isolate 173, 24 h
Klebsiella pneumoniae [29] = assay: Antibacterial activity against Klebsiella pneumoniae isolate 328 expressing qnr B19 gene, GyrA D87G mutant after 24 hrs by twofold serial dilution method; settings: isolate 328, 24 h

`O=C(O)c1cn(C2CC2)c2cc(N3CCNCC3)c(F)cc2c1=O` [CIPROFLOXACIN] gave an MIC90 (Escherichia coli [1]) greater than 4 µg/mL, an MIC90 (Escherichia coli [2]) greater than 4 µg/mL and an MIC90 (Klebsiella pneumoniae [3]) of less than 0.25 µg/mL. The MIC90 (Escherichia coli [4]) was less than 0.25 µg/mL, the MIC90 (Escherichia coli [5]) was 1 µg/mL (≈ 3.02 µM) and the MIC90 (Escherichia coli [6]) was less than 0.25 µg/mL. The MIC90 (Escherichia coli [7]) was greater than 4 µg/mL, the MIC90 (Escherichia coli [8]) was 1 µg/mL (≈ 3.02 µM) and the MIC90 (Klebsiella pneumoniae [9]) was greater than 4 µg/mL. The MIC90 (Klebsiella pneumoniae [10]) was 0.75 µg/mL (≈ 2.26 µM), the MIC90 (Escherichia coli [11]) was greater than 4 µg/mL and the MIC90 (Escherichia coli [12]) was less than 0.25 µg/mL. The MIC90 (Klebsiella pneumoniae [13]) was 2 µg/mL (≈ 6.04 µM), the MIC90 (Escherichia coli [14]) was greater than 4 µg/mL and the MIC90 (Escherichia coli [15]) was greater than 4 µg/mL. It also gave an MIC90 (Escherichia coli [16]) of 0.5 µg/mL (≈ 1.51 µM), an MIC90 (Klebsiella pneumoniae [17]) of less than 0.25 µg/mL and an MIC90 (Klebsiella pneumoniae [18]) of less than 0.25 µg/mL. For the same molecule, the MIC90 (Klebsiella pneumoniae [19]) was greater than 4 µg/mL, the MIC90 (Escherichia coli [20]) was 0.5 µg/mL (≈ 1.51 µM) and the MIC90 (Escherichia coli [21]) was less than 0.25 µg/mL. The MIC90 (Escherichia coli [22]) was less than 0.25 µg/mL, the MIC90 (Staphylococcus aureus) was greater than 4 µg/mL and the MIC90 (Escherichia coli [23]) was 4 µg/mL (≈ 12.1 µM). It also gave an MIC90 (Klebsiella pneumoniae [24]) of less than 0.25 µg/mL, an MIC90 (Escherichia coli [25]) of less than 0.25 µg/mL and an MIC90 (Klebsiella pneumoniae [26]) of less than 0.25 µg/mL. The MIC90 (Klebsiella pneumoniae [27]) was less than 0.25 µg/mL, the MIC90 (Klebsiella pneumoniae [28]) was greater than 4 µg/mL and the MIC90 (Klebsiella pneumoniae [29]) was greater than 4 µg/mL.
